The test system of the assay is Escherichia coli ATCC 51813. Briefly: Minimum inhibitory concentration (MIC) test using microchannels, MUG fluorescence read-out. The class given is cell-based. To be noted: ATCC51813, VRB media with MUG 0.5 mg/ml, 16 hours at 37° C., control tubes and microchannels. On the procedure: Microchannel polyethylene films were heat embossed on a hydraulic press according to the procedure outlined in U.S. patent application Ser. No. 08/905,481. […] The channels were covered with ScotchPak #33 (3M Company) using an iron heated to 149 degrees C. (300 degrees F.), forming a series of capillary channels.
A dilution series of tetracycline was prepared in VRB media (7.0 g Bacto peptone, 3.0 g yeast extract, 1.5 g bile salts per liter) containing the fluorescent indicator methylumbelliferyl glucuronide (MUG, 0.5 mg/ml). The following tetracycline concentrations were prepared: 40, 4, 0.4, 0.04, and 0.004 micrograms/ml. Approximately 1 ml of each solution was placed in a test tube. A suspension of Escherichia coli ATCC 51813 (100 microliters of approximately 10^7 bacteria/ml) was added to each tube. A syringe was used to transfer each solution into adjacent microchannels (1.6 microliters/channel). Both the control tubes and the microchannel device were incubated for 16 hours at 37° C. After incubation the samples were observed under ultraviolet radiation.

≈ marks a conversion by molar mass, not a printed value.

In the case of `CN(C)[C@@H]1C(O)=C(C(N)=O)C(=O)[C@@]2(O)C(O)=C3C(=O)c4c(O)cccc4[C@@](C)(O)[C@H]3C[C@@H]12` [tetracycline], the MIC is 4 µg/mL (≈ 9 µM).

Source of the values: patent US8197775B2, “Detection article having fluid control film” (priority 1999, dated 2012).
